Here are results for 16 compounds from article PMC12578816 (Scientific Reports, 2025).

Converted amounts (≈) assume the structure as drawn. “Also recorded” adds a separate entry of the source. Like-named read-outs stand apart in the source and are kept apart here.

The subject of assay [1] is α-glucosidase (from Saccharomyces cerevisiae). Briefly: α-glucosidase enzyme kinetic analysis. The note with it: for inhibition mechanism: Lineweaver–Burk plots; for Ki: secondary plot of slopes.
Assay [2] shares this test system. The assay can be described thus: α-glucosidase inhibitory assay. The format is biochemical.
Assay [3] concerns the target α-glucosidase. To be noted: cited from earlier work.

Usually Ki stands for a dissociation constant, usually derived from enzyme kinetics or from competition with a known ligand. Lower therefore signals a stronger hold on the target. With `O=c1ccn([C@@H]2O[C@H](CO)[C@@H](O)[C@H]2O)c(=O)[nH]1` [Uridine], in assay [1], the inhibition mechanism entry is reported as “competitive inhibitor; also recorded: competitive inhibition” and the Ki came out at 153 µM. Further, the “α-glucosidase inhibitory activity of isolated compounds (in words)” value (shortened to “α-glucosidase inhibitory activity”) in assay [2] was “exhibited α-glucosidase inhibitory activity”. The term IC50 denotes the point on the concentration scale where inhibition reaches its midpoint. With hydroxyglutaric acid [HGA], the IC50 in assay [3] (from Paenibacillus sp. TKU042) is 220 µg/mL. Turning to `CCCCC/C=C\C/C=C\CCCCCCCC(=O)O` [linoleic acid], the inhibition mechanism result in assay [3] (fatty acids) is “mixed-type”. For `OC[C@H]1O[C@H](O[C@H]2[C@H](O)[C@@H](O)[C@@H](O[C@H]3[C@H](O)[C@@H](O)C(O)O[C@@H]3CO)O[C@@H]2CO)[C@H](O)[C@@H](O)[C@@H]1N[C@@H]1[C@H](O)[C@@H](O)[C@H](O)[C@]2(CO)O[C@H]12` (stereo partly drawn) [CKD-711], the IC50 in assay [3] is recorded as 2.5 µg/mL (≈ 3.69 µM). As to `O=c1c(-c2ccc(O)cc2)coc2cc(O)cc(O)c12` [genistein], in assay [3], the inhibition type result is recorded as “non-competitive inhibitor”. As for `CC/C=C\C/C=C\C/C=C\CCCCCCCC(=O)O` [α-linolenic acid], the inhibition mechanism entry in assay [3] (fatty acids) is recorded as “mixed-type”. For `CCCCCCCCCCCCCCCC(=O)O` [C16:0, Palmitic acid], the inhibition mechanism entry in assay [3] (fatty acids) was “mixed-type”. `CC/C=C\C/C=C\C/C=C\C/C=C\C/C=C\CCCC(=O)O` [eicosapentaenoic acid]: in assay [3] (fatty acids), the inhibition mechanism result is on record as “mixed-type”. On to `Nc1ncnc2c1ncn2[C@@H]1O[C@H](CO)[C@@H](O)[C@H]1O` [Adenosine], for which, in assay [1], the inhibition mechanism entry is given as “mixed-type” and the affinity, expressed as Ki, was 90.9 µM. Further, in assay [2], the “α-glucosidase inhibitory activity” value was “exhibited α-glucosidase inhibitory activity”. For the compound `CCCCC/C=C\C/C=C\C/C=C\C/C=C\CCCC(=O)O` [arachidonic acid], the inhibition mechanism entry in assay [3] (fatty acids) is “mixed-type”.

In the case of `CCCCCCCC/C=C\CCCCCCCC(=O)O` [oleic acid], the inhibition mechanism result in assay [3] (fatty acids) is recorded as “mixed-type”. For the compound `OC[C@H]1O[C@H](O[C@H]2[C@H](O)[C@@H](O)[C@@H](O[C@H]3[C@H](O)[C@@H](O)[C@@H](O[C@H]4[C@H](O)[C@@H](O)[C@@H](O[C@H]5[C@H](O)[C@@H](O)C(O)O[C@@H]5CO)O[C@@H]4CO)O[C@@H]3CO)O[C@@H]2CO)[C@H](O)[C@@H](O)[C@@H]1N[C@@H]1[C@H](O)[C@@H](O)[C@H](O)[C@]2(CO)O[C@H]12` (stereo partly drawn) [CKD-711a], in assay [3], the IC50 is listed as 6.5 µg/mL (≈ 6.49 µM).

For the compound `CC(=O)c1nccc2c1[nH]c1ccccc12` [1-acetyl-β-carboline], the “α-glucosidase inhibitory activity” value in assay [2] is recorded as “no inhibitory activity”. In the case of `O=Cc1ccc(O)cc1` [4-hydroxybenzaldehyde], in assay [2], the “α-glucosidase inhibitory activity” value is “no inhibitory activity”.

With `C[C@H]1O[C@H](O[C@H]2[C@H](O)[C@@H](O)[C@@H](O[C@H]3[C@H](O)[C@@H](O)C(O)O[C@@H]3CO)O[C@@H]2CO)[C@H](O)[C@@H](O)[C@@H]1N[C@H]1C=C(CO)[C@@H](O)[C@H](O)[C@H]1O` (stereo partly drawn) [Acarbose, reference compound], the figures for the inhibition mechanism result in assay [3] and in assay [1] were “competitive inhibitor” and “competitive inhibition”, respectively. Besides, the “Inhibition (%)” value in assay [2] (10 mg/mL, n = 3, mean ± SD) is 80.2 ± 0.7%. As for `CCCCOC(=O)c1ccccc1C(=O)OCCCC` [DBP, dibutyl phthalate], in assay [1], the inhibition mechanism result is “mixed-type” and the Ki was 516 µM. The “α-glucosidase inhibitory activity” value in assay [2] is recorded as “exhibited α-glucosidase inhibitory activity”.
